# Assay results from publication PMC6325233, “A Novel Actin Binding Drug with In Vivo Efficacy” (Antimicrobial Agents and Chemotherapy, 2018).
# Key:
# [1] = biological target: T1, rabbit skeletal muscle F-actin (Oryctolagus cuniculus, UniProt P68135); assay: Affinity pulldown with biotinylated alkyne-OF and streptavidin beads; assay type: binding; settings: 24 μg F-actin, 8 μg alkyne-OF, azide-biotin, streptavidin beads, silver stain
# T1 construct: Purified rabbit skeletal muscle filamentous actin (catalog number AKF99); purchased Cytoskeleton, Inc. AKF99; host or cells: rabbit skeletal muscle (tissue-purified)
# Description: (§1) Purified rabbit skeletal muscle filamentous actin (catalog number AKF99) and G-actin (catalog number AKL95) were purchased from Cytoskeleton, Inc. Actin was reconstituted in Milli-Q water to achieve a stock concentration of 0.4 mg/ml in a buffer that consisted of 5 mM Tris-HCl (pH 8.0), 0.2 mM CaCl2, 0.2 mM ATP, 2 mM MgCl2, and 5% (wt/vol) sucrose as directed by the supplier. This solution was stored at −80°C in 50-μl aliquots until use. Immediately before use, each aliquot was thawed by placing it in a 37°C water bath for 5 min and then at room temperature. For all studies, 24 μg of F- or G-actin was used with 8 μg alkyne-OF. F-actin filaments were reacted with native occidiofungin for 15 min at room temperature at molar ratios of 1:10 (24 μg actin to 8 μg native occidiofungin) and 1:5 (24 μg actin to 4 μg native occidiofungin). As per the manufacturer’s instructions, Acti-stain 670 phalloidin (Cytoskeleton, Inc.) was used as a control in an in vitro actin filament binding study. Actin filaments treated with DMSO (solvent blank negative control) were stained and observed for comparison. The actin filaments were visualized on an Olympus FV1000 confocal microscope. Pulldown assays were performed using alkyne-OF with azide-biotin (Click-iT protein reaction buffer kit; Thermo Fisher Scientific), according to the manufacturer’s instructions. The proteins captured by biotinylated alkyne-OF on streptavidin beads were eluted by boiling in 50 µl of SDS sample loading buffer. The sample was electrophoresed through a 12% SDS gel, and protein bands were visualized by silver staining (Pierce Silver stain kit; Thermo Fisher Scientific) according to the manufacturer’s protocol. F- and G-actin treated with DMSO and native occidiofungin were used as the controls.
# [2] = system: rabbit skeletal muscle G-actin; assay: as above; assay type: binding; settings: 24 μg G-actin, 8 μg alkyne-OF, azide-biotin, streptavidin beads, silver stain
# Description: as §1
# [3] = system: Saccharomyces cerevisiae BY4741; assay: MIC susceptibility testing; assay type: cell-based
# Description: Occidiofungin was purified from a liquid culture of Burkholderia contaminans MS14 as previously described ([21]). MIC susceptibility testing was performed according to the CLSI M27-A3 and M38-A2 standards for the susceptibility testing of yeasts and filamentous fungi, respectively. S. cerevisiae deletion mutants were obtained from the commercially available BY4741 deletion library (Thermo Scientific).
# The addition of an alkyne reactive group to the primary amine on occidiofungin was performed initially at the Texas A&M Natural Products LINCHPIN Laboratory at Texas A&M University and subsequently at the CPRIT Synthesis and Drug-Lead Discovery Laboratory at Baylor University (see Fig. S1 in the supplemental material). A solution of triethylamine and acetonitrile was prepared by dissolving 10 µl of triethylamine in 11.7 ml of acetonitrile. A stock solution of acetonitrile and the reagents was prepared by adding 2,5-dioxopyrrolidin-1-yl hex-5-ynoate (1.40 mg, 6.69 µmole, 8.2 equivalent) to 1.08 ml of the triethylamine and acetonitrile solution prepared above. Occidiofungin (1 mg, 0.82 µmole, 1 equiv.) was added to the stock solution of acetonitrile and reagents (400 µl) containing triethylamine (0.34 µl, 2.46 µmole, 3 equiv.) and 2,5-dioxopyrrolidin-1-yl hex-5-ynoate ([…], 2.46 µmole, 3 eq). […]
substance,measurement,setting,value
occidiofungin,copurification/binding with F-actin,[1],directly bind to F- or G-actin
same,copurification/binding with F-actin,[1]; listed as native OF,actin was not detected in the control lanes
same,copurification/binding with G-actin,[2],directly bind to F- or G-actin
same,copurification/binding with G-actin,[2]; listed as native OF,actin was not detected in the control lanes
same,MIC,"[3]; CLSI M27-A3, alkyne-OF vs native comparison (S2 Table)",0.125 µg/mL
same,MIC,[3]; parent strain of deletion mutants (S4 Table),0.25 µg/mL
